Assay [1] relates to excised rat hearts. The assay is described as follows: Modified Langendorff rat heart model, peptide pre-treatment before ischemia/reperfusion (Example 2). The following applies: hearts bathed 2 hours in 1 μM peptide before 20 min ischemia and 2 hours reperfusion; vs SBT-46, SBT-102 and controls; anticipated. The procedure:
The Langendorff rodent heart model is widely employed in studies of myocardial function and responses to injury (e.g., ischemia). For whole-heart studies, male Sprague-Dawley rats (7-9 weeks old) are injected with pentobarbital (35 mg/kg, ip injection) and hearts are excised with midline thoracotomy. The aortas are secured around a cannula of a modified Langendorff apparatus and retrogradely perfused (perfusion pressure of 75 mm Hg) with a modified Krebs-Henseleit buffer containing (in mM): 118 NaCl, 24 NaHCO3, 4.75 KCl, 1.2 KH2PO4, 1.2 MgSO4, 2.0 CaCl2, and 10 glucose (gassed with 95/5% O2/CO2). Hearts are bathed in a buffer-filled perfusion chamber maintained at 37° C. for the duration of the experiments. Following the initiation of perfusion, hearts are instrumented for the simultaneous observation of mechanical and electrical function. A buffer-filled latex balloon (size 5, Harvard Apparatus, Holliston, Mass., USA), which is calibrated at the beginning of each day using a digital manometer, is inserted into the left ventricle (via the mitral valve) for the measurement of left ventricular developed pressure (LVDP), with balloon volume adjusted to establish a diastolic pressure of 5-8 mm Hg. Three electrodes are placed into the buffer filled perfusion chamber for the measurement of the volume-conducted electrocardiogram (ECG). Coronary flow rates are monitored constantly with a flow probe (Transconic Systems, Ithaca, N.Y., USA) connected in series with the perfusion line, and normalized to heart wet weight (in grams) at the end of each experiment. All physiological parameters are continuously monitored and stored on a personal computer using commercially available software (Chart, AD Instruments, Colorado Springs, Colo., USA). Heart rate is calculated using the LVDP trace, and maximal rates of contraction(+dP/dt) and relaxation (−dP/dt) are calculated using the derivative of the LVDP trace.
Prior to the initiation of ischemia/reperfusion, the excised rat hearts are bathed in buffer containing an experimental peptide at a concentration of 1 μM or buffer alone (control) for two hours. The experimental peptide is selected from D-Arg-D-Dmt-D-Lys-L-Phe-NH2 (SBT-46), D-Arg-L-DMT-L-Ala-L-Phe-NH2 (SBT-68), (Ac)-D-Arg-L-DMT-L-Lys-L-Phe-NH2 (SBT-85), D-Arg-L-Dmt-L-His-L-Phe-NH2(SBT-100), D-Arg-L-DMT-L-Orn-L-Phe-NH2 (SBT-102), D-Orn-L-DMT-L-Lys-L-Phe-NH2(SBT-131), D-(Amidine)Arg(propylamine)-L-DMT-L-Lys-L-Phe-NH2(SBT-140), and D-Arg(butylamidine analog)-L-DMT-L-Lys-L-Phe-NH2 (SBT-149). Following a 10 minute baseline period, ischemia/reperfusion is initiated. Hearts are exposed to global no-flow ischemia by stopping perfusion for 20 min. At the end of the index ischemia, static buffer from the perfusion lines is washed out (via an accessory port proximal to the aortic cannula), and reperfusion ensues for 2 hours with Krebs buffer. At the end of reperfusion, the left ventricle is dissected, sliced into 5 mm-thick slices, incubated in 1% triphenyltetrazolium chloride (TTC) for 10 min (37° C.) and digitally photographed for subsequent infarct size analysis. Infarct size is expressed as a percentage of the left ventricle (% area at risk (AAR))(calculated using ImageJ software, NIH, Bethesda, Md., USA).

Assay [2] has as its system Excised Sprague-Dawley rat hearts. The assay is described as follows: Modified Langendorff rat heart model, ischemia/reperfusion with peptide in the reperfusion buffer (Example 1). The note with it: 1 μM peptide in Krebs buffer during 2 hours reperfusion after 20 min global no-flow ischemia; compared to controls. Here is the method: The Langendorff rodent heart model is widely employed in studies of myocardial function and responses to injury (e.g., ischemia). For whole-heart studies, male Sprague-Dawley rats (7-9 weeks old) were injected with pentobarbital (35 mg/kg, ip injection) and hearts were excised with midline thoracotomy. The aortas were secured around a cannula of a modified Langendorff apparatus and retrogradely perfused (perfusion pressure of 75 mm Hg) with a modified Krebs-Henseleit buffer containing (in mM): 118 NaCl, 24 NaHCO3, 4.75 KCl, 1.2 KH2PO4, 1.2 MgSO4, 2.0 CaCl2, and 10 glucose (gassed with 95/5% O2/CO2). Hearts were bathed in a buffer-filled perfusion chamber maintained at 37° C. for the duration of the experiments. Following the initiation of perfusion, hearts were instrumented for the simultaneous observation of mechanical and electrical function. A buffer-filled latex balloon (size 5, Harvard Apparatus, Holliston, Mass., USA), calibrated at the beginning of each day using a digital manometer, was inserted into the left ventricle (via the mitral valve) for the measurement of left ventricular developed pressure (LVDP), with balloon volume adjusted to establish a diastolic pressure of 5-8 mm Hg. Three electrodes were placed into the buffer filled perfusion chamber for the measurement of the volume-conducted electrocardiogram (ECG). Coronary flow rates were monitored constantly with a flow probe (Transconic Systems, Ithaca, N.Y., USA) connected in series with the perfusion line, and normalized to heart wet weight (in grams) at the end of each experiment. All physiological parameters were continuously monitored and stored on a personal computer using commercially available software (Chart, AD Instruments, Colorado Springs, Colo., USA). Heart rate was calculated using the LVDP trace, and maximal rates of contraction(+dP/dt) and relaxation (−dP/dt) were calculated using the derivative of the LVDP trace.
Following a 10 minute baseline period, ischemia/reperfusion was initiated. Hearts were exposed to global no-flow ischemia by stopping perfusion for 20 min. At the end of the index ischemia, static buffer from the perfusion lines was washed out (via an accessory port proximal to the aortic cannula), and reperfusion ensued for 2 hours either with Krebs buffer alone (control) or Krebs buffer containing an experimental peptide at a concentration of 1 μM. Peptides tested included D-Arg-D-Dmt-D-Lys-L-Phe-NH2 (SBT-46), D-Arg-L-DMT-L-Ala-L-Phe-NH2 (SBT-68), (Ac)-D-Arg-L-DMT-L-Lys-L-Phe-NH2 (SBT-85), D-Arg-L-Dmt-L-His-L-Phe-NH2(SBT-100), D-Arg-L-DMT-L-Orn-L-Phe-NH2 (SBT-102), D-Orn-L-DMT-L-Lys-L-Phe-NH2(SBT-131), D-(Amidine)Arg(propylamine)-L-DMT-L-Lys-L-Phe-NH2 (SBT-140), and D-Arg(butylamidine analog)-L-DMT-L-Lys-L-Phe-NH2(SBT-149). At the end of reperfusion, the left ventricle was dissected, sliced into 5 mm-thick slices, incubated in 1% triphenyltetrazolium chloride (TTC) for 10 min (37° C.) and digitally photographed for subsequent infarct size analysis. Infarct size was expressed as a percentage of the left ventricle (% area at risk (AAR))(calculated using ImageJ software, NIH, Bethesda, Md., USA).

Entries after “also recorded” stand apart in the source; their conditions may differ. Square brackets hold non-standard residues; d marks the D form. Peptide text beside a SMILES is read from it. Dmt = Cc1cc(O)cc(C)c1C[C@H](N)C(=O)O

Regarding `Cc1cc(O)cc(C)c1C[C@H](NC(=O)[C@H](N)CCCNC(=N)N)C(=O)N[C@@H](C)C(=O)N[C@@H](Cc1ccccc1)C(N)=O` [SBT-68, D-Arg-L-DMT-L-Ala-L-Phe-NH2] (H-[dR][Dmt]AF-NH2), in assay [1], the LVDP entry is “increased LVDP”, the infarct size result is “reduced infarct size”, the “maximal rates of contraction (+dP/dt)” value is on record as “increased maximal rates of contraction” and the “maximal rates of relaxation (−dP/dt)” value is “increased maximal rates of relaxation”. Moreover, in assay [2], the “attenuation of cardiac ischemia injury and ischemia-reperfusion injury” value (from here on “attenuation”) is “able to attenuate cardiac ischemia injury and ischemia-reperfusion injury; also recorded: attenuation of cardiac ischemia-reperfusion injury”; the “infarct size expressed as a percentage of area at risk (AAR)” value (from here on “infarct size expressed as a percentage”) is listed as “reduced infarct size”; the “left ventricular developed pressure (LVDP)” value is recorded as “increased LVDP”; the “maximal rates of contraction (+dP/dt)” value is given as “increased maximal rates of contraction”. Moreover, the “maximal rates of relaxation (−dP/dt)” value in assay [2] is given as “increased maximal rates of relaxation”.

On to D-Arg-L-Dmt-L-Orn-L-Phe-NH2 [SBT-102], for which, in assay [2], the “attenuation” value is recorded as “does not attenuate cardiac ischemia-reperfusion injury”; the “infarct size expressed as a percentage” value is on record as “did not reduce infarct size”; the “left ventricular developed pressure (LVDP)” value is reported as “did not reduce infarct size, increase LVDP”; the “maximal rates of contraction (+dP/dt)” value was “did not reduce infarct size, increase LVDP, or increase the maximal rates of contraction and relaxation”. In addition, in assay [2], the “maximal rates of relaxation (−dP/dt)” value was “did not reduce infarct size, increase LVDP, or increase the maximal rates of contraction and relaxation”.

For `Cc1cc(O)cc(C)c1C[C@H](NC(=O)[C@H](N)CCCCC(=N)N)C(=O)N[C@@H](CCCCN)C(=O)N[C@@H](Cc1ccccc1)C(N)=O` [SBT-149, D-Arg(butylamidine analog)-L-DMT-L-Lys-L-Phe-NH2], in assay [1], the LVDP result was “increased LVDP”, the infarct size entry is recorded as “reduced infarct size”, the “maximal rates of contraction (+dP/dt)” value is “increased maximal rates of contraction” and the “maximal rates of relaxation (−dP/dt)” value is “increased maximal rates of relaxation”. Also, in assay [2], the “attenuation” value is “able to attenuate cardiac ischemia injury and ischemia-reperfusion injury; also recorded: attenuation of cardiac ischemia-reperfusion injury”; the “infarct size expressed as a percentage” value is recorded as “reduced infarct size”; the “left ventricular developed pressure (LVDP)” value was “increased LVDP”; the “maximal rates of contraction (+dP/dt)” value is “increased maximal rates of contraction”. Further, the “maximal rates of relaxation (−dP/dt)” value in assay [2] was “increased maximal rates of relaxation”.

In the case of `Cc1cc(O)cc(C)c1C[C@H](NC(=O)[C@H](N)CCCNC(=N)N)C(=O)N[C@@H](Cc1cnc[nH]1)C(=O)N[C@@H](Cc1ccccc1)C(N)=O` [SBT-100, D-Arg-L-Dmt-L-His-L-Phe-NH2] (H-[dR][Dmt]HF-NH2), in assay [1], the LVDP result is listed as “increased LVDP”, the infarct size entry is “reduced infarct size”, the “maximal rates of contraction (+dP/dt)” value is “increased maximal rates of contraction” and the “maximal rates of relaxation (−dP/dt)” value was “increased maximal rates of relaxation”. In assay [2], the “attenuation” value was “able to attenuate cardiac ischemia injury and ischemia-reperfusion injury; also recorded: attenuation of cardiac ischemia-reperfusion injury”; the “infarct size expressed as a percentage” value is “reduced infarct size”; the “left ventricular developed pressure (LVDP)” value is “increased LVDP”; the “maximal rates of contraction (+dP/dt)” value is given as “increased maximal rates of contraction”. Besides, in assay [2], the “maximal rates of relaxation (−dP/dt)” value was “increased maximal rates of relaxation”.

As for `Cc1cc(O)cc(C)c1C[C@H](NC(=O)[C@@H](CCCN)NC(=N)N)C(=O)N[C@@H](CCCCN)C(=O)N[C@@H](Cc1ccccc1)C(N)=O` [SBT-140, D-(Amidine)Arg(propylamine)-L-DMT-L-Lys-L-Phe-NH2], in assay [1], the LVDP result is given as “increased LVDP”, the infarct size result was “reduced infarct size”, the “maximal rates of contraction (+dP/dt)” value was “increased maximal rates of contraction” and the “maximal rates of relaxation (−dP/dt)” value is listed as “increased maximal rates of relaxation”. Besides, in assay [2], the “attenuation” value was “able to attenuate cardiac ischemia injury and ischemia-reperfusion injury; also recorded: attenuation of cardiac ischemia-reperfusion injury”; the “infarct size expressed as a percentage” value is “reduced infarct size”; the “left ventricular developed pressure (LVDP)” value was “increased LVDP”; the “maximal rates of contraction (+dP/dt)” value is on record as “increased maximal rates of contraction”. The “maximal rates of relaxation (−dP/dt)” value in assay [2] is listed as “increased maximal rates of relaxation”.

On to D-Arg-D-Dmt-D-Lys-L-Phe-NH2 [SBT-46], for which, in assay [2], the “attenuation” value is on record as “does not attenuate cardiac ischemia-reperfusion injury”; the “infarct size expressed as a percentage” value is “did not reduce infarct size”; the “left ventricular developed pressure (LVDP)” value is reported as “did not reduce infarct size, increase LVDP”; the “maximal rates of contraction (+dP/dt)” value was “did not reduce infarct size, increase LVDP, or increase the maximal rates of contraction and relaxation”. The “maximal rates of relaxation (−dP/dt)” value in assay [2] was “did not reduce infarct size, increase LVDP, or increase the maximal rates of contraction and relaxation”.

The values above are taken from US11548913B2, “Therapeutic compositions including peptides and uses thereof” (Stealth BioTherapeutics Inc., priority 2015, dated 2023).
